Drawing on US9273042B2, “5-amino[1,4]thiazines as BACE 1 inhibitors” (Hoffmann-La Roche Inc., priority 2012, dated 2016), this text covers IC50 for 6 compounds.

SMILES strings stand for the structures.

This assay concerns the target BACE1 (Homo sapiens (Human), UniProt P56817). Description: Cellular Aβ-lowering assay (Abeta 40 AlphaLISA). Type of assay: cell-based. To be noted: HEK293 APP cells, 18-20 hrs incubation, Aβ 40 in culture supernatants; read-out: BACE1 cell act. Aβ40, IC50. As to the method: Cellular Aβ-Lowering Assay:
The Abeta 40 AlphaLISA Assay can be used. The HEK293 APP cells were seeded in 96 well Microtiter plates in cell culture medium (Iscove's, plus 10% (v/v) fetal bovine serum, penicillin/streptomycin) to about 80% confluency and the compounds were added at a 3× concentration in ⅓ volume of culture medium (final DMSO concentration was kept at 1% v/v). After 18-20 hrs incubation at 37° C. and 5% CO2 in a humidified incubator, the culture supernatants were harvested for the determination of Aβ 40 concentrations using Perkin-Elmer Human Amyloid beta 1-40 (high specificity) Kit (Cat#AL275C).
In a Perkin-Elmer White Optiplate-384 (Cat#6007290), 2 ul culture supernatants were combined with 2 μl of a 10× AlphaLISA Anti-hAβAcceptor beads+Biotinylated Antibody Anti-Aβ 1-40 Mix (50 μg/mL/5 nM). After 1 hour room temperature incubation, 16 μl of a 1.25× preparation of Streptavidin (SA) Donor beads (25 μg/mL) were added and incubated for 30 minutes in the Dark. Light Emission at 615 nm was then recorded using EnVision-Alpha Reader. Levels of Aβ 40 in the culture supernatants were calculated as percentage of maximum signal (cells treated with 1% DMSO without inhibitor). The IC50 values were calculated using the Excel XLfit software.
On the technique in general: Alpha assays give light when donor and acceptor beads are brought close together.

Sequence of BACE1 (P56817 46-501): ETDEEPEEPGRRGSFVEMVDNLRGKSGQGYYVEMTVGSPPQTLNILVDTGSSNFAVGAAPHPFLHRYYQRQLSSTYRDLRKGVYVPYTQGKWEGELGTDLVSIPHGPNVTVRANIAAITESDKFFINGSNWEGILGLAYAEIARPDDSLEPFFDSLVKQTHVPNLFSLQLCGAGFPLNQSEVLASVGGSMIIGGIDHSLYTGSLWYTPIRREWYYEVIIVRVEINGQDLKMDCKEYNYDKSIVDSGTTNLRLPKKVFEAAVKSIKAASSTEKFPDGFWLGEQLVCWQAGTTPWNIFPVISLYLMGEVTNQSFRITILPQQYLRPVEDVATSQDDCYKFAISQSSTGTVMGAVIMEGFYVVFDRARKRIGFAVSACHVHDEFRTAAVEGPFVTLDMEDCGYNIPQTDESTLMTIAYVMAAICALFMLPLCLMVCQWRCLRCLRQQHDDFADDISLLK

The term IC50 denotes the midpoint of a concentration-inhibition curve. Consider `C[C@@]1(c2cc(NC(=O)c3ccc(C#N)cn3)ccc2F)CS(=O)(=O)C2(CCCC2)C(N)=N1` [Example 9, 5-Cyano-pyridine-2-carboxylic acid [3-((R)-10-amino-8-methyl-6,6-dioxo-6λ6-thia-9-aza-spiro[4.5]dec-9-en-8-yl)-4-fluoro-phenyl]-amide], for which the concentration for half-maximal inhibition (IC50) came out at 1 nM.

With `C[C@@]1(c2cc(NC(=O)c3ccc(Cl)cn3)ccc2F)CS(=O)(=O)CC(N)=N1` [Example 3, 5-Chloro-pyridine-2-carboxylic acid [3-((R)-5-amino-3-methyl-1,1-dioxo-1,2,3,6-tetrahydro-1λ6-[1,4]thiazin-3-yl)-4-fluoro-phenyl]-amide], the IC50 stood at 6.1 nM.

In the case of `CC1(C)C(N)=N[C@](C)(c2cc(NC(=O)c3ccc(C#N)cn3)ccc2F)CS1(=O)=O` [Example 6, 5-Cyano-pyridine-2-carboxylic acid [3-((R)-5-amino-3,6,6-trimethyl-1,1-dioxo-1,2,3,6-tetrahydro-1λ6-[1,4]thiazin-3-yl)-4-fluoro-phenyl]-amide], the IC50 turned out to be 0.2 nM.

Consider `C[C@@]1(c2cc(NC(=O)c3ccc(C#N)cn3)ccc2F)CS(=O)(=O)CC(N)=N1` [Example 2, 5-Cyano-pyridine-2-carboxylic acid [3-((R)-5-amino-3-methyl-1,1-dioxo-1,2,3,6-tetrahydro-1λ6-[1,4]thiazin-3-yl)-4-fluoro-phenyl]-amide], for which the IC50 worked out at 8.2 nM.

Consider `C[C@@]1(c2cc(NC(=O)c3ccc(C#N)cn3)ccc2F)CSCC(N)=N1` [Example 1, (R)—N-(3-(5-amino-3-methyl-3,6-dihydro-2H-1,4-thiazin-3-yl)-4-fluorophenyl)-5-cyanopicolinamide], for which the IC50 was 11 nM.

`C[C@@]1(c2cc(NC(=O)c3ccc(OC(F)F)cn3)ccc2F)CS(=O)(=O)CC(N)=N1` [Example 4, 5-Difluoromethoxy-pyridine-2-carboxylic acid [3-((R)-5-amino-3-methyl-1,1-dioxo-1,2,3,6-tetrahydro-1λ6-[1,4]thiazin-3-yl)-4-fluoro-phenyl]-amide]: the IC50 worked out at 5.7 nM.
